For orientation: solubility means the concentration that dissolves in the medium under given conditions. Usually Kd stands for the free concentration of one partner at which half of the binding sites on the other are occupied at equilibrium, for simple one-to-one binding. Low values mean higher affinity, high ones lower affinity. The term IC50 denotes the point on the concentration scale where inhibition reaches its midpoint.

Data on eight compounds can be found in PMC8258866 (Journal of medicinal chemistry, 2020).

One series in a line: Kinetic solubility. In kind it is physicochemical. The note with it: 27 tested as HCl salt; for solubility: PBS, pH 7.4, solubility (PBS, pH 7.4).
The test system of another series is MCF7:CFR 3D spheroids. In words: 3D-spheroid growth assay. In kind it is cell-based. The note with it: 100 nM; cell viability at day 9.
Series [1] relates to MCF-7:CFR cells. Nature of the series: Cell growth assay in fulvestrant-resistant MCF-7:CFR 2D cultures. The note with it: MCF-7:CFR growth inhibition. The series is classed as cell-based.
For a further series, the target named is BET family proteins. In words: BROMOscan bromodomain profiling, BET family. In kind it is binding. Conditions: across BET family proteins.
For series [2], the system named is MCF-7:WS8, MCF-7:5C, MCF-7:TAM1, T47D, T47D/TDG, MCF-7:CPR, MCF-7:CFR cells. In words: Cell growth assay across ER+ breast cancer cell lines. The note with it: read-out: IC50 across all cell lines. The series is classed as cell-based.
Series [3] concerns MCF-7:CFR cells. Nature of the series: 3 h treatment and washout study in MCF-7:CFR cells. The note with it: media replaced after 3 h, viability after 5 days. The series is classed as cell-based.
Another series in a line: Mouse pharmacokinetics. The series is classed as in vivo, CD1 mice. Conditions: iv 5 mg/kg, mice, HCl salt.
Series [4] has as its system tamoxifen-resistant MCF-7:TAM1 cell-derived xenograft. In words: MCF-7:TAM1 xenograft, monotherapy. In kind it is in vivo.
The subject of a further series is MCF-7:Tam1 tumors. Nature of the series: MCF-7:TAM1 xenograft, combination with fulvestrant. In kind it is in vivo, athymic nude mice. Conditions: 4 weeks.

On to `CC(=O)[C@H]1CC[C@H]2[C@@H]3CCC4=CC(=O)CC[C@]4(C)[C@H]3CC[C@]12C` [progesterone, reference compound], for which, in the series “Kinetic solubility”, the solubility was 22.4 µM.
Consider `CC/C(=C(\c1ccc(O)cc1)c1ccc(OCCN(C)C)cc1)c1ccccc1` [4-hydroxytamoxifen], for which the “effect on MCF-7:CFR 3D spheroid growth/viability” value in the series with MCF7:CFR 3D spheroids is “Neither 4-hydroxytamoxifen (4OHT) nor fulvestrant inhibited MCF-7:CFR cell growth”.
Same read-out and setting: in the case of `C[C@]12CC[C@@H]3c4ccc(O)cc4C[C@@H](CCCCCCCCC[S+]([O-])CCCC(F)(F)C(F)(F)F)[C@H]3[C@@H]1CC[C@@H]2O` (stereo partly shown) [fulvestrant] it was “Neither 4-hydroxytamoxifen (4OHT) nor fulvestrant inhibited MCF-7:CFR cell growth”; in that of `COc1nnc2ccc(N3CCC(c4ccc(OCCN5CCN(C)C(=O)[C@H]5C)cc4)CC3)nn12` [Compound 5, (3R)-4-[2-[4-[1-(3-Methoxy-[1,2,4]-triazolo[4,3-b]pyridazin-6-yl)-4-piperidyl]phenoxy]ethyl]-1,3-dimethyl-piperazin-2-one], “significantly inhibited growth”.
With `CCS(=O)(=O)Nc1cc(-c2cn(C)c3c(=O)[nH]ccc23)cc2c1ccn2C(C)(c1ccccn1)c1ccccn1` [Compound 27, N-(1-(1,1-Di(pyridin-2-yl)ethyl)-6-(1-methyl-7-oxo-6,7-dihydro-1H-pyrrolo[2,3-c]pyridin-3-yl)-1H-indol-4-yl)-ethanesulfonamide], the “cellular potency over JQ1” value in the series with MCF-7:CFR cells [1] was over 100 fold. Moreover, on BET family proteins, the Kd was under 1 nM. Also, the “effect on MCF-7:CFR 3D spheroid growth/viability” value in the series with MCF7:CFR 3D spheroids was “complete loss of spheroid viability”. For the same compound, the IC50 in [2] is under 10 nM. Also, the “efficacy after drug washout” value in the series on MCF-7:CFR cells [3] is on record as “only slightly diminished”. For the same compound, in “Kinetic solubility”, the “solubility (PBS, pH 7.4)” value is 73.43 μM and the solubility is 73.4 µM. Besides, in “Mouse pharmacokinetics”, the Cl is recorded as 25.5 (mL/min)/kg. Besides, the “effect on animal body weight” value in [4] (50 (mg/kg)/day po, 4 weeks) is reported as “without any effect on animal body weight”. Besides, in series [4] (once daily administration for 4 weeks), the “overt signs of toxicity” value is listed as “no overt signs of toxicity”. In addition, the “tumor growth inhibition versus vehicle control” value in the series on MCF-7:Tam1 tumors (30 mg/kg po in combination with fulvestrant sc 1 (mg/mouse)/week) is “comparable and significant tumor growth inhibition”.
Consider `Cc1sc2c(c1C)C(c1ccc(Cl)cc1)=N[C@@H](CC(=O)OC(C)(C)C)c1nnc(C)n1-2` [Compound 1, reference compound], for which, in the series with MCF7:CFR 3D spheroids, the “effect on MCF-7:CFR 3D spheroid growth/viability” value is given as “significantly inhibited growth”. Moreover, the “efficacy after drug washout” value in the series with MCF-7:CFR cells [3] was “no significant efficacy at <300 nM”.
As to `CC/C(=C(\c1ccccc1)c1ccc(OCCN(C)C)cc1)c1ccccc1` [tamoxifen, reference compound], the “effect on tumor growth relative to vehicle control” value in series [4] (1.5 mg/mouse/day po, day 28) is listed as “no significant effect on tumor growth”.
For `CCNC(=O)C[C@@H]1N=C(c2ccc(Cl)cc2)c2cc(OC)ccc2-n2c(C)nnc21` [Compound 2, reference compound], the “tumor growth inhibition versus vehicle control” value in the series on MCF-7:Tam1 tumors (50 mg/kg po in combination with fulvestrant sc 1 (mg/mouse)/week) is “comparable and significant tumor growth inhibition”.
